Data as given in patent US5428038A, “Benzopyranones, a method for producing them and uses therefor” (Dr. Willmar Schwabe GmbH & Co., priority 1991, dated 1995).

Test system: NMDA-induced death
Experiment: NMDA test (25 mg/kg i.v.), prevention of NMDA-induced death (neuroprotective efficacy)
Type: in vivo, male NMRI mice
Settings: Mus musculus, po, NMDA 25 mg/kg i.v.; for responders at 5 mg/kg: 5 mg/kg p.o. 1 h before test; for responders at 25 mg/kg: 25 mg/kg p.o. 1 h before test; for ED50: 1 h, dose protecting 50% of animals against NMDA-induced death one hour after application; for responders at 100 mg/kg: 100 mg/kg p.o. 1 h before test
Protocol: In order to determine the neuroprotective and anticonvulsive activity of the compounds in accordance with the invention of the general formula I, two slightly different methods were employed as follows: […]
1. In order to determine the neuroprotective efficacy NMDA at a rate of 25 mg/kg/10 ml was administered intravenously to male NMRI mice with a body weight of 20 to 25 g. As a consequence of this application the animals suffer clonic and partly tonic convulsions, which lead to death. As a criterion for the efficacy of the investigated compounds prevention of death is used.
All animals used in the investigations had free access to food and water prior to the experiments. The test and reference substances were all administered as a suspension in 0.2% agar or water, partly by the intermediary of solution promoters such as for instance PEG-400, perorally using an esophageal probe. Control animals received the same volumes of the solvent with optional solution promoters. One hour after the application of the substance NMDA was administered intravenously and the animals observed for the occurrence of convulsions.
In table 1 the results of the tests (NMDA 25 mg i.v.) performed in accordance with method 1 are compiled with dosages of 5-100 mg of the compounds in accordance with the invention per kg of body weight as compared with known NMDA-antagonists. As a percentage efficacy the percentage of surviving animals is used.
The determination of the ED50 values was performed in accordance with the method described in Lichtfield and Wilcoxon, J. Pharmacol. exp. Therapeut. 96, 99 (1949) in each case with 4 to 5 groups of 10 animals per dosage rate.

[1] = read-out: Protective action (percentage of surviving animals)

Row | Compound | responders at 5 mg/kg [1] | responders at 25 mg/kg [1] | other results
1 | CCOc1cc2oc(=O)ccc2cc1OCCCN1CCN(c2ccccc2)CC1 [Example 3, 7-ethoxy-6-[3-(4-phenyl-1-piperazinyl)propoxy]-2H-1-benzopyran-2-one] | 62.5% | – | –
2 | O=c1ccc2cc(OC3CCCC3)c(OCCCN3CCN(c4ccccc4)CC3)cc2o1 [Example 5, 6-(cyclopentyloxy)-7-[3-(4-phenyl-1-piperazinyl)propoxy]-2H-1-benzopyran-2-one] | – | 87.5% | –
3 | COc1cc2oc(=O)c3c(c2cc1OCCCN1CCN(c2ccccc2Cl)CC1)CCC3 [Example 58, 8-{3-[4-(2-chlorophenyl)-1-piperazinyl]propoxy}-2,3-dihydro-7-methoxy-cyclopenta[c][1]benzopyran-4(1H)-one] | 100% | – | ED50: 1.8 mg/kg
4 | COc1cc2oc(=O)c3c(c2cc1OCCCCCN1CCC(c2ccccc2)CC1)CCC3 [Example 51, 2,3-dihydro-7-methoxy-8-[5-(4-phenyl-1-piperidinyl)pentyloxy]cyclopenta[c][1]benzopyran-4(1H)-one] | 12.5% | – | –
5 | COc1cc2oc(=O)c3c(c2cc1OCCCN1CCN(c2ccccc2C)CC1)CCC3 [Example 59, 2,3-dihydro-7-methoxy-8-{3-[4-(2-methylphenyl)-1-piperazinyl]propoxy}cyclopenta[c][1]benzopyran-4(1H)-one] | 100% | – | ED50: 1.1 mg/kg
6 | COc1cc2oc(=O)ccc2cc1OCCCN1CCC(c2ccccc2)CC1 [Example 9, 7-methoxy-6-[3-(4-phenyl-1-piperidinyl)propoxy]-2H-1-benzopyran-2-one] | – | 50% | –
7 | CCCc1cc(=O)oc2cc(OC)c(OCCCN3CCN(c4ccccc4)CC3)cc12 [Example 33] | – | 100% | ED50: 4.4 mg/kg
8 | COc1cc2oc(=O)c3c(c2cc1OCCCN1CCN(c2ncccn2)CC1)CCC3 [Example 63, 2,3-dihydro-7-methoxy-8-{3-[4-(2-pyrimidinyl)-1-piperazinyl]propoxy}cyclopenta[c][1]benzopyran-4(1H)-one] | – | 12.5% | –
9 | COc1cc2oc(=O)c3c(c2cc1OCCCN1CCC(C(O)(c2ccc(F)cc2)c2ccc(F)cc2)CC1)CCC3 [Example 65, 8-{3-[4-(bis(4-fluorophenyl)hydroxymethyl)-1-piperidinyl]propoxy}-2,3-dihydro-7-methoxy-cyclopenta[c][1]benzopyran-4(1H)-one] | – | – | responders at 100 mg/kg [1]: 12.5%
10 | COc1cc2oc(=O)c3c(c2cc1OCCCN1CCN(c2cccc(C)c2C)CC1)CCC3 [Example 53, 8-{3-[4-(2,3-dimethylphenyl)-1-piperazinyl]propoxy}-2,3-dihydro-7-methoxy-cyclopenta[c][1]benzopyran-4(1H)-one] | – | 50% | –
11 | COc1cc2oc(=O)c3c(c2cc1OCCCN1CCN(c2ccc([N+](=O)[O-])cc2)CC1)CCC3 [Example 61, 2,3-dihydro-7-methoxy-8-{3-[4-(4-nitrophenyl)-1-piperazinyl]propoxy}cyclopenta[c][1]benzopyran-4(1H)-one] | – | – | responders at 100 mg/kg [1]: 25%
12 | COc1cc2oc(=O)c3c(c2cc1OCCCN1CCN(c2ccccc2OC)CC1)CCC3 [Example 54, 2,3-dihydro-7-methoxy-8-{3-[4-(2-methoxyphenyl)-1-piperazinyl]propoxy}cyclopenta[c][1]benzopyran-4(1H)-one] | 100% | – | ED50: 0.4 mg/kg
13 | COc1cc2oc(=O)cc(C(C)C)c2cc1OCCCN1CCC(c2ccccc2)CC1 [Example 36, 7-methoxy-4-(1-methylethyl)-6-[3-(4-phenyl-1-piperidinyl)propoxy]-2H-1-benzopyran-2-one] | – | 50% | –
14 | COc1cc2oc(=O)c(C)c(C)c2cc1OCCCN1CCC(c2ccccc2)CC1 [Example 29, 7-methoxy-3,4-dimethyl-6-[3-(4-phenyl-1-piperidinyl)propoxy]-2H-1-benzopyran-2-one] | – | 87.5% | –
15 | CCOc1cc2ccc(=O)oc2cc1OCCCN1CCC(c2ccccc2)CC1 [Example 11, 6-ethoxy-7-[3-(4-phenyl-1-piperidinyl)propoxy]-2H-1-benzopyran-2-one] | – | 62.5% | –
16 | CCOc1cc2oc(=O)ccc2cc1OCCCN1CCN(c2ccccc2OC)CC1 [Example 7, 7-ethoxy-6-{3-[4-(2-methoxyphenyl)-1-piperazinyl]propoxy}-2H-1-benzopyran-2-one] | 100% | – | ED50: 0.9 mg/kg
17 | COc1cc2oc(=O)ccc2cc1OCC(O)CN1CCC(c2ccccc2)CC1 (racemic) [Example 22, (±)-6-[2-hydroxy-3-(4-phenyl-1-piperidinyl)-propoxy]-7-methoxy-2H-1-benzopyran-2-one] | – | – | responders at 100 mg/kg [1]: 37.5%

Row | Compound | responders at 5 mg/kg [1] | responders at 25 mg/kg [1] | other results
18 | CCCc1cc(=O)oc2cc(OC)c(OCCCN3CCC(c4ccccc4)CC3)cc12 [Example 34, 7-methoxy-6-[3-(4-phenyl-1-piperidinyl)propoxy]-4-propyl-2H-1-benzopyran-2-one] | – | 75% | –
19 | COc1cc2oc(=O)c3c(c2cc1OCCCN1CCC(Cc2ccccc2)CC1)CCC3 [Example 64] | – | 75% | –
20 | CNC1(c2ccccc2Cl)CCCCC1=O (stereo not shown) [ketamine, reference compound] | – | – | responders at 20 mg/kg (20 mg/kg p.o. 1 h before test, read-out: Protective action (percentage of surviving animals)): 0%
21 | COc1cc2oc(=O)c3c(c2cc1OCCCN1CCN(c2ccccn2)CC1)CCC3 [Example 62, 2,3-dihydro-7-methoxy-8-{3-[4-(2-pyridinyl)-1-piperazinyl]propoxy}cyclopenta[c][1]benzopyran-4(1H)-one] | – | 87.5% | –
22 | COc1cc2oc(=O)c(-c3ccccc3)c(C)c2cc1OCCCN1CCN(c2ccccc2)CC1 [Example 41, 7-methoxy-4-methyl-3-phenyl-6-[3-(4-phenyl-1-piperazinyl)propoxy]-2H-1-benzopyran-2-one] | 87.5% | – | ED50: 4.8 mg/kg
23 | COc1cc2oc(=O)c3c(c2cc1OCCCCCN1CCN(c2ccccc2)CC1)CCC3 [Example 47, 2,3-dihydro-7-methoxy-8-[5-(4-phenyl-1-piperazinyl)pentyloxy]cyclopenta[c][1]benzopyran-4(1H)-one] | 62.5% | – | –
24 | COc1cc2oc(=O)cc(C(C)C)c2cc1OCCCN1CCN(c2ccccc2)CC1 [Example 35, 7-methoxy-4-(1-methylethyl)-6-[3-(4-phenyl-1-piperazinyl)propoxy]-2H-1-benzopyran-2-one] | 75% | – | –
25 | COc1cc2oc(=O)c3c(c2cc1OCCN1CCN(c2ccccc2)CC1)CCC3 [Example 44, 2,3-dihydro-7-methoxy-8-[2-(4-phenyl-1-piperazinyl)ethoxy]cyclopenta[c][1]benzopyran-4(1H)-one] | – | 87.5% | ED50: 4.8 mg/kg
26 | COc1cc2ccc(=O)oc2cc1OCC(O)CN1CCN(c2cccc(C(F)(F)F)c2)CC1 (racemic) [Example 21, (±)-7-{2-hydroxy-3-[4-(3-trifluoromethylphenyl)-1-piperazinyl]propoxy}-6-methoxy-2H-1-benzopyran-2-one] | – | – | responders at 50 mg/kg (50 mg/kg p.o. 1 h before test, read-out: Protective action (percentage of surviving animals)): 62.5%
27 | O=c1ccc2cc(OC3CCCC3)c(OCCCN3CCC(c4ccccc4)CC3)cc2o1 [Example 13, 6-(cyclopentyloxy)-7-[3-(4-phenyl-1-piperidinyl)propoxy]-2H-1-benzopyran-2-one] | – | 100% | –
28 | COc1cc2oc(=O)cc(C(F)(F)F)c2cc1OCCCN1CCC(c2ccccc2)CC1 [Example 32, 7-methoxy-6-[3-(4-phenyl-1-piperidinyl)propoxy]-4-(trifluoromethyl)-2H-1-benzopyran-2-one] | – | 62.5% | –
29 | COc1cc2oc(=O)c3c(c2cc1OCCCCN1CCC(c2ccccc2)CC1)CCC3 [Example 50, 2,3-dihydro-7-methoxy-8-[4-(4-phenyl-1-piperidinyl)butyloxy]cyclopenta[c][1]benzopyran-4(1H)-one] | – | 87.5% | –
30 | COc1cc2oc(=O)ccc2cc1OCC(O)CN1CCC(O)(c2ccccc2)CC1 (racemic) [Example 24, (±)-6-[2-hydroxy-3-(4-hydroxy-4-phenyl-1-piperidinyl)propoxy]-7-methoxy-2H-1-benzopyran-2-one] | – | – | responders at 100 mg/kg [1]: 37.5%
31 | COc1cc2oc(=O)ccc2cc1OCCCN1CCN(c2ccccc2)CC1 [Example 1, 7-methoxy-6-[3-(4-phenyl-1-piperazinyl)propoxy]-2H-1-benzopyran-2-one] | – | 100% | –
32 | CCCCc1c(C)c2cc(OCCCN3CCN(c4ccccc4)CC3)c(OC)cc2oc1=O [Example 37, 3-butyl-7-methoxy-4-methyl-6-[3-(4-phenyl-1-piperazinyl)propoxy]-2H-1-benzopyran-2-one] | – | 100% | –
33 | COc1cc2oc(=O)c3c(c2cc1OCCCN1CCN(c2ccccc2O)CC1)CCC3 [Example 60, 2,3-dihydro-8-{3-[4-(2-hydroxyphenyl)-1-piperazinyl]propoxy}-7-methoxy-cyclopenta[c][1]benzopyran-4(1H)-one] | 62.5% | – | –
